The record followed here is ChEMBL document CHEMBL4257083, “Novel cytochrome p450 inhibitors and their method of use” (2016).

Data set [1] deals with T1, Steroid 17-alpha-hydroxylase/17,20 lyase (Homo sapiens, UniProt P05093).
T1 sequence (P05093 whole entry): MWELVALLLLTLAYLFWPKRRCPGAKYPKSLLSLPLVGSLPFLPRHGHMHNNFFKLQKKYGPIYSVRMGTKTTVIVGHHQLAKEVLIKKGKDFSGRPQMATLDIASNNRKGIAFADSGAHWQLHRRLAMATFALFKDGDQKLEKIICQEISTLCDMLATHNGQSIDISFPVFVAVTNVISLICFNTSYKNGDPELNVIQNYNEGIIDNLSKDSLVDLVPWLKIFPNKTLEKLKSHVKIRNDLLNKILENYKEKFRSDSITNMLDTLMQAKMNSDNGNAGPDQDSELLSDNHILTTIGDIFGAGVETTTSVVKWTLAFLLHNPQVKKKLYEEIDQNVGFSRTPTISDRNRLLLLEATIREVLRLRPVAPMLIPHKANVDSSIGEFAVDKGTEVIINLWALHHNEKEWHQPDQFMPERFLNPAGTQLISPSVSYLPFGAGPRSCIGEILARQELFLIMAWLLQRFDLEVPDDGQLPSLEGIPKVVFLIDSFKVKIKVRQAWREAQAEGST
Nature of the data set: Inhibition of recombinant CYP17 (unknown origin) expressed in human AD293 cells using 21[3H]-17alpha-hydroxyl-pregnenolone as substrate pretreated for 60 mins followed by substrate addition and measured after 4 hrs by Topcount method. The class given is cell-based.

In data set [2] the target is T2, Cytochrome P450 11B1, mitochondrial (Homo sapiens, UniProt P15538).
T2 sequence (P15538 whole entry): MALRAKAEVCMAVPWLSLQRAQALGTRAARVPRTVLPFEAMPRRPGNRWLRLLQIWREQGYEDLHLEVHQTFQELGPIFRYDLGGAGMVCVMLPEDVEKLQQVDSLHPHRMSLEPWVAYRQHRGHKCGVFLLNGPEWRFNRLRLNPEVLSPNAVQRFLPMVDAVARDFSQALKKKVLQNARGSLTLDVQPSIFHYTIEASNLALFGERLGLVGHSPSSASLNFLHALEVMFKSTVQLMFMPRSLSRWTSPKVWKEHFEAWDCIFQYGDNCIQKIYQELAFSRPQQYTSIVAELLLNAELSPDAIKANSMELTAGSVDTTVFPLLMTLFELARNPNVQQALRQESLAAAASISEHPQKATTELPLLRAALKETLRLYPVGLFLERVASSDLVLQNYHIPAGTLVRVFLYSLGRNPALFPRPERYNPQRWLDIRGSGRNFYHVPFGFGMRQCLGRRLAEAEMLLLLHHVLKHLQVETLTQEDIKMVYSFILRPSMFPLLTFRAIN
The experiment in a line: Inhibition of recombinant CYP11B1 (unknown origin) expressed in human AD293 cells using 11-deoxycortisol as substrate pretreated for 60 mins followed by substrate addition and measured after 12 hrs by LC/MS analysis. The data set is classed as cell-based.

For the next data set, the target named is T3, Steroid 21-hydroxylase (Homo sapiens, UniProt P08686).
T3 sequence (P08686 whole entry): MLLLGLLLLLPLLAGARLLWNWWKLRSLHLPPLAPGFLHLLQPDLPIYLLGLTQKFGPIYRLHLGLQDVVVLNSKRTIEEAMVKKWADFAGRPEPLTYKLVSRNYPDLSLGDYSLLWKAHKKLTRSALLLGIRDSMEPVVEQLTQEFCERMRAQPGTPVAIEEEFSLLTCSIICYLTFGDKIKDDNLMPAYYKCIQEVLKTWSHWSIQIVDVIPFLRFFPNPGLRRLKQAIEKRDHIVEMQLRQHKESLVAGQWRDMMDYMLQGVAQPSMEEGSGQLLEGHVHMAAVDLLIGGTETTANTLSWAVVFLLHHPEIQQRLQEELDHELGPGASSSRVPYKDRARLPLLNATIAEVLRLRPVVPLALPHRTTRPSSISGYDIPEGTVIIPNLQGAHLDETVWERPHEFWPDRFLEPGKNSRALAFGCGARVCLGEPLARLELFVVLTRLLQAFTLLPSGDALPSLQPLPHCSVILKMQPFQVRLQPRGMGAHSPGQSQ
Nature of the data set: Inhibition of recombinant CYP21 (unknown origin) expressed in human AD293 cells using 17alpha-hydroxyprogesterone as substrate pretreated for 60 mins followed by substrate addition and measured after 45 mins by LC/MS analysis. The data set is classed as cell-based.

Data set [3] is described as follows: Tmax in guinea pig at 10 mg/kg, po. The data set is classed as ADME, organism-based, Cavia porcellus. The settings on record: in vivo.
Data set [4] in a line: Oral bioavailability in guinea pig at 10 mg/kg. The data set is classed as ADME, organism-based, Cavia porcellus. The settings on record: in vivo.

What is called IC50 is the concentration needed to halve the response being measured. For `N#CCS(=O)(=O)N1CCN(c2ccc(/C=C/c3cc(F)cc(Cn4ccnc4)c3)cc2)CC1`, the IC50 was 0.086 µM in data set [1], 0.073 µM in data set [2] and at least 10 µM at Steroid 21-hydroxylase.

As for `CS(=O)(=O)N1CCN(c2ccc(/C=C/c3cc(F)cc(Cn4ccnc4)c3)cc2)CC1`, the 50% inhibitory concentration (IC50) is 0.058 µM in data set [1], 0.049 µM in data set [2] and at least 10 µM on Steroid 21-hydroxylase.

In the case of `CS(=O)(=O)N1CCN(c2ccc(/C=C/c3cc(Cl)cc(-c4ccncc4)c3)cc2)CC1`, the IC50 came to 0.005 µM in data set [1], 0.45 µM in data set [2] and 0.84 µM on Steroid 21-hydroxylase.

One may read the Tmax as the time from dosing to the highest level. One may read the bioavailability as dose-corrected exposure relative to a reference, in per cent. `CCS(=O)(=O)N1CCN(c2ccc(/C=C/c3cc(F)cc(-c4ccncc4)c3)cc2)CC1`: the Tmax in data set [3] was 5.33 h. Moreover, the bioavailability in data set [4] is 22.3%.

Regarding `CS(=O)(=O)N1CCN(c2ccc(/C=C/c3cc(Cl)cc(Cn4ccnc4)c3)cc2)CC1`, the IC50 in data set [1] worked out at 0.18 µM; in data set [2], 0.024 µM; at Steroid 21-hydroxylase it was 2.2 µM.

Turning to `CS(=O)(=O)N1CCN(c2ccc(/C=C/c3cc(F)cc(-c4ccncc4)c3)cc2)CC1`, the IC50 in data set [1] turned out to be 0.005 µM; in data set [2], 0.2 µM; on Steroid 21-hydroxylase, 0.74 µM.

Take `N=C(N)N1CCN(c2ccc(/C=C/c3cc(F)cc(Cn4ccnc4)c3)cc2)CC1`: the IC50 was 1.2 µM in data set [1], 1.4 µM in data set [2] and at least 10 µM on Steroid 21-hydroxylase.

In the case of `Clc1cc(/C=C/c2ccc(N3CCN(C4=NCCO4)CC3)cc2)cc(-c2ccncc2)c1`, the half-inhibitory concentration (IC50) was 0.005 µM in data set [1], 3.5 µM in data set [2] and 1.2 µM at Steroid 21-hydroxylase.

As for `O=S(=O)(C1CC1)N1CCN(c2ccc(/C=C/c3cc(F)cc(-c4ccncc4)c3)cc2)CC1`, in data set [3], the Tmax stood at 8 h.

For the compound `O=S(=O)(c1c[nH]cn1)N1CCN(c2ccc(/C=C/c3cc(Cl)cc(Cn4ccnc4)c3)cc2)CC1`, the IC50 was 0.0062 µM in data set [1], 0.007 µM in data set [2] and at least 10 µM at Steroid 21-hydroxylase.

Take `CC(C)S(=O)(=O)N1CCN(c2ccc(/C=C/c3cc(Cl)cc(-c4ccncc4)c3)cc2)CC1`: the IC50 in data set [1] came to 0.005 µM; in data set [2], 0.058 µM; at Steroid 21-hydroxylase it was 0.565 µM.

With `CC(C)S(=O)(=O)N1CCN(c2ccc(/C=C/c3cc(F)cc(Cn4ccnc4)c3)cc2)CC1`, the figures for the IC50 (in data set [1]; in data set [2]; on Steroid 21-hydroxylase) were 0.039 µM, 0.005 µM and 0.7 µM, respectively.

In the case of `O=S(=O)(C1CC1)N1CCN(c2ccc(/C=C/c3cc(Cl)cc(Cn4ccnc4)c3)cc2)CC1`, the results for the IC50 (in data set [2]; at Steroid 21-hydroxylase) were 0.022 µM and 0.34 µM, respectively.

As for `Fc1cc(/C=C/c2ccc(N3CCN(C4=NCCCO4)CC3)cc2)cc(Cn2ccnc2)c1`, the IC50 in data set [1] stood at 0.042 µM; in data set [2] it was 0.017 µM; on Steroid 21-hydroxylase, 1 µM.

With `N=C(N)N1CCN(c2ccc(/C=C/c3cc(Cl)cc(Cn4ccnc4)c3)cc2)CC1`, the IC50 was 2.5 µM in data set [1], 1.3 µM in data set [2] and at least 10 µM on Steroid 21-hydroxylase.

Take `N=C(N)N1CCN(c2ccc(/C=C/c3cc(F)cc(-c4ccncc4)c3)cc2)CC1`: the IC50 was 0.018 µM in data set [1], 3.6 µM in data set [2] and at least 10 µM at Steroid 21-hydroxylase.

Consider `O=S(=O)(N1CCN(c2ccc(/C=C/c3cc(F)cc(-c4ccncc4)c3)cc2)CC1)C(F)(F)F`, for which the Tmax in data set [3] turned out to be 3.33 h. Moreover, the bioavailability in data set [4] is 22.1%.

Consider `CCS(=O)(=O)N1CCN(c2ccc(/C=C/c3cc(Cl)cc(Cn4ccnc4)c3)cc2)CC1`, for which the IC50 in data set [1] came to 0.024 µM; at Steroid 21-hydroxylase, 0.54 µM.

Take `O=S(=O)(C1CC1)N1CCN(c2ccc(/C=C/c3cc(Cl)cc(-c4ccncc4)c3)cc2)CC1`: the half-maximal inhibitory concentration (IC50) is 0.005 µM in data set [1], 0.051 µM in data set [2] and 0.416 µM on Steroid 21-hydroxylase.

With `Clc1cc(/C=C/c2ccc(N3CCN(C4=NCCO4)CC3)cc2)cc(Cn2ccnc2)c1`, the IC50 in data set [1] was determined as 0.1 µM; in data set [2], 0.13 µM; at Steroid 21-hydroxylase, 3.5 µM.

On to `Fc1cc(/C=C/c2ccc(N3CCN(C4=NCCO4)CC3)cc2)cc(Cn2ccnc2)c1`, for which the IC50 in data set [1] is 0.117 µM; in data set [2], 0.13 µM; on Steroid 21-hydroxylase, at least 10 µM.

Turning to `Fc1cc(/C=C/c2ccc(N3CCN(C4=NCCO4)CC3)cc2)cc(-c2ccncc2)c1`, the IC50 is 0.005 µM in data set [1], 1.8 µM in data set [2] and 1.2 µM on Steroid 21-hydroxylase.

For `CC(=O)N1CCN(c2ccc(/C=C/c3cc(Cl)cc(Cn4ccnc4)c3)cc2)CC1`, the 50% inhibitory concentration (IC50) in data set [1] worked out at 0.042 µM.

Regarding `CC(=O)N1CCN(c2ccc(/C=C/c3cc(F)cc(-c4ccncc4)c3)cc2)CC1`, the results for the IC50 (in data set [1]; in data set [2]; on Steroid 21-hydroxylase) were 0.0046 to 0.005 µM, 1.2 µM and 0.43 µM, respectively. Besides, the Tmax in data set [3] was found to be 3 h. The compound also yielded a F in data set [4] of 184.21%.

For `N=C(N)N1CCN(c2ccc(/C=C/c3cc(Cl)cc(-c4ccncc4)c3)cc2)CC1`, the IC50 is 10 µM in data set [2] and at least 10 µM at Steroid 21-hydroxylase.

`CC(C)S(=O)(=O)N1CCN(c2ccc(/C=C/c3cc(Cl)cc(Cn4ccnc4)c3)cc2)CC1`: the values for the IC50 (in data set [1]; in data set [2]; on Steroid 21-hydroxylase) were 0.038 µM, 0.24 µM and 0.085 µM, respectively.

Consider `CC(=O)N1CCN(c2ccc(CCc3cc(F)cc(-c4ccncc4)c3)cc2)CC1`, for which the IC50 is 0.021 µM in data set [1], 0.0014 µM in data set [2] and at least 10 µM on Steroid 21-hydroxylase.

On to `CC(=O)N1CCN(c2ccc(/C=C/c3cc(O)cc(-n4ccnc4)c3)cc2)CC1`, for which the IC50 was determined as 0.22 µM in data set [1], 4.8 µM in data set [2] and 1.95 µM at Steroid 21-hydroxylase.

In the case of `CC(=O)N1CCN(c2ccc(/C=C/c3cc(O)cc(Cn4ccnc4)c3)cc2)CC1`, the IC50 in data set [1] was determined as 0.088 µM; in data set [2] it was 0.051 µM; at Steroid 21-hydroxylase, 2.4 µM.

As to `O=S(=O)(CCCCl)N1CCN(c2ccc(/C=C/c3cc(Cl)cc(Cn4ccnc4)c3)cc2)CC1`, the IC50 in data set [1] was determined as 0.031 µM; in data set [2], 0.013 µM; on Steroid 21-hydroxylase, 2.87 µM.

Take `O=[N+]([O-])c1cccc(S(=O)(=O)N2CCN(c3ccc(/C=C/c4cc(Cl)cc(Cn5ccnc5)c4)cc3)CC2)c1`: the concentration for half-maximal inhibition (IC50) in data set [1] worked out at 0.009 µM; in data set [2] it was 0.004 µM; on Steroid 21-hydroxylase it was 0.16 µM.

On to `Oc1cc(/C=C/c2ccc(Br)cc2)cc(-n2ccnc2)c1`, for which the IC50 in data set [1] was 1.2 µM; in data set [2] it was 1.4 µM; on Steroid 21-hydroxylase, at least 10 µM.

Turning to `N#Cc1cccc(S(=O)(=O)N2CCN(c3ccc(/C=C/c4cc(Cl)cc(Cn5ccnc5)c4)cc3)CC2)c1`, the IC50 in data set [1] turned out to be 0.021 µM; in data set [2] it was 0.004 µM; on Steroid 21-hydroxylase, 1.2 µM.

Regarding `O=[N+]([O-])c1cc(S(=O)(=O)N2CCN(c3ccc(/C=C/c4cc(Cl)cc(Cn5ccnc5)c4)cc3)CC2)ccc1Cl`, the IC50 is 0.106 µM in data set [1], 0.057 µM in data set [2] and at least 10 µM on Steroid 21-hydroxylase.

As for `O=C(c1cccc([N+](=O)[O-])c1)N1CCN(c2ccc(/C=C/c3cc(Cl)cc(Cn4ccnc4)c3)cc2)CC1`, the IC50 is 0.017 µM in data set [1], 0.004 µM in data set [2] and at least 10 µM on Steroid 21-hydroxylase.

Regarding `O=C(c1cccnc1)N1CCN(c2ccc(/C=C/c3cc(Cl)cc(Cn4ccnc4)c3)cc2)CC1`, the IC50 was 0.026 µM in data set [1], 0.0049 µM in data set [2] and at least 10 µM on Steroid 21-hydroxylase.
